One test relates to MOR. Also noted: method as in PMID 35412886. As to conditions: 10 µM; cited from earlier work.
A further test deals with T1, CB1 receptor (Homo sapiens, UniProt P21554).
T1 construct: host or cells: CHO-K1
Put plainly: CB1 antagonist cAMP assay (HitHunter cAMP XS+), CP55,940 challenge. It counts as cell-based. As to conditions: for Emax: CHO-K1, read-out: CB1 antagonist activity, % of the maximum response of AM251; for Concentration at which CB1 antagonist activity above the baseline appeared: CP55,940 1 nM, CHO-K1. On the technique in general: Cyclic AMP is a second messenger, typically raised through Gs and lowered through Gi signalling.

In test [1] the target is T2, CB2 receptor (Homo sapiens, UniProt P34972).
T2 construct: host or cells: CHO-K1 (from the C2 catalogue suffix and 'same protocol' as CB1)
Put plainly: CB2 antagonist cAMP assay (HitHunter cAMP XS+), CP55,940 challenge. The note with it: for Emax: read-out: CB2 antagonist activity, % of the maximum effect of SR144528, highest tested concentration (12 µM), CP55,940 1 nM. It counts as cell-based.

A further test has as its target T3, dopamine D2S receptor (Homo sapiens, UniProt P14416).
T3 construct: host or cells: CHO-K1
Put plainly: D2S agonist HitHunter cAMP XS+ assay. Set-up: Emax: dose or concentration left out as unconfirmed. It counts as cell-based.

Test [2] deals with T4, mu-opioid receptor (MOR, OPRM1) (Homo sapiens, UniProt P35372).
T4 construct: host or cells: U2OS (methods); the results text b24 says CHO-K1
The format is cell-based. As to conditions: for Increase in the met-enkephalin internalization signal: 10 µM compound, 30 min pre-treatment, then 1 µM met-enkephalin.

The target of test [3] is T2, CB2 receptor. Put plainly: Radioligand binding assay, displacement of [3H]-CP55940 at CB2. As to conditions: 1 µM compound; 100% = 1 µM WIN55212-2. (In general: Loss of bound radioactivity is the signal in a displacement assay; it reports binding, not function.)
A further test concerns the target T5, 5HT-1A receptor (Homo sapiens, UniProt P08908).
T5 sequence (P08908 1-422): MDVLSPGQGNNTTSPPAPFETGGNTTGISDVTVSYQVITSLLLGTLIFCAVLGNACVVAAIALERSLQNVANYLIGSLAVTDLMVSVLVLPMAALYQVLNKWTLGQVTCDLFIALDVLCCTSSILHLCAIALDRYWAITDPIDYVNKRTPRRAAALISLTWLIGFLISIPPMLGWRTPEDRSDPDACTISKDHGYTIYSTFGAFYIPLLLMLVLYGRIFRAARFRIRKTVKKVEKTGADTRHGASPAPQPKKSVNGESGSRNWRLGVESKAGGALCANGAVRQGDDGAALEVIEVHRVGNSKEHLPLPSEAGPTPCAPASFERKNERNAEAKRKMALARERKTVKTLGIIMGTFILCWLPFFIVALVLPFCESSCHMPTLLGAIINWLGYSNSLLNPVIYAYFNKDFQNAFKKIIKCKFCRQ
Put plainly: 5HT-1A agonist PathHunter β-arrestin assay. As to conditions: for Emax: CHO-K1, read-out: 5HT-1A agonism, % of the maximum response of serotonin. Set-up: Emax: dose or concentration left out as unconfirmed.

For a further test, the system named is mice. Also noted: method as in PMID 31889124. The note with it: doses 2.5 to 10 mg/kg; cited from earlier work.

T4 sequence (P35372 whole entry): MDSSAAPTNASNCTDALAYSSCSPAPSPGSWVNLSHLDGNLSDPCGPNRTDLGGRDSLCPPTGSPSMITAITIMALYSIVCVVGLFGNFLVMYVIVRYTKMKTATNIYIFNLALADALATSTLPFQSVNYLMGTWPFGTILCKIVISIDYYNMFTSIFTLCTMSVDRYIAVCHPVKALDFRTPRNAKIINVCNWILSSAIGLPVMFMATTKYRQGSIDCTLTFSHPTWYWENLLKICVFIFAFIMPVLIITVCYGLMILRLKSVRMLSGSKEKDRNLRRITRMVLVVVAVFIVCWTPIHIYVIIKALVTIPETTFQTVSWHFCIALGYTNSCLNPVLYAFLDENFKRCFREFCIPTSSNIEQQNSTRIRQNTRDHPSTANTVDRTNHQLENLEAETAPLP
T1 sequence (P21554 whole entry): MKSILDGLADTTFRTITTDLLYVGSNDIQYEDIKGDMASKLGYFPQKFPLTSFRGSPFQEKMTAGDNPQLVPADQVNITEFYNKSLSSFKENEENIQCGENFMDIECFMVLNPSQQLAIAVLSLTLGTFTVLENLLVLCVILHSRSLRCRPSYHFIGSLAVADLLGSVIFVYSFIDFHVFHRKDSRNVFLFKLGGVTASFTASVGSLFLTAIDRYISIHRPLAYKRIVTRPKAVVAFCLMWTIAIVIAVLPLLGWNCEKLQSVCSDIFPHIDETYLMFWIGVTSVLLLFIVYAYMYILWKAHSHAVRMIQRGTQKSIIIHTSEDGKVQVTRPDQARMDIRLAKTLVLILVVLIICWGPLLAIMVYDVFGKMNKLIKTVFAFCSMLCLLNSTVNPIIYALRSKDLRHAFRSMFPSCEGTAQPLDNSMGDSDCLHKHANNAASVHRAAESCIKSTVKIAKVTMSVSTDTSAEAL
T2 sequence (P34972 whole entry): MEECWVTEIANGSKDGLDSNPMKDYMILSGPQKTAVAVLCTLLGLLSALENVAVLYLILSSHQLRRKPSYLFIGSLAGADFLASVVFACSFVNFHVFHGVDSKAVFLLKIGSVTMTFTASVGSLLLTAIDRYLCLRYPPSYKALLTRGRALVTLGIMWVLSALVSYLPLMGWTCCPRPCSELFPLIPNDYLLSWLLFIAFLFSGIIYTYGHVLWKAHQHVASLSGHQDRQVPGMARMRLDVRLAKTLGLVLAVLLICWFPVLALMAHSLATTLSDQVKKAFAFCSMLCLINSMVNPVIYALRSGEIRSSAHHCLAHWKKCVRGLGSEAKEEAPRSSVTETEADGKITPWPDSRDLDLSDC
T3 sequence (P14416 1-414 isoform P14416-2): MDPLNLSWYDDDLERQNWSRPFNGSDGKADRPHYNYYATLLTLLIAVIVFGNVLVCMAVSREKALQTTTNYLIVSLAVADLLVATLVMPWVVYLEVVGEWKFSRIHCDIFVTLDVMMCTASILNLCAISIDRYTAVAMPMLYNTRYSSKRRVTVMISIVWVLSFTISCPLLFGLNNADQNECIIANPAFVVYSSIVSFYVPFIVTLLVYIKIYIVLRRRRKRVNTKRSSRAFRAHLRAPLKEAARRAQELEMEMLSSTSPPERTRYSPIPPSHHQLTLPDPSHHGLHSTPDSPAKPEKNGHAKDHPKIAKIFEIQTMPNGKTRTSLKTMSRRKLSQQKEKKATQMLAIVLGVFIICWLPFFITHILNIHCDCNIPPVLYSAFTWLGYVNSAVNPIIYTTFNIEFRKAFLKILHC

In the case of `COc1ccc(C2SCCN2S(=O)(=O)c2ccc(Cl)cc2)cc1Br` (stereo not drawn) [BMS-986122], in the test on MOR, the “Activity of MOR in GTP turnover rate assay” value was 166%.
With `C=C(C)[C@@H]1CCC(C)=C[C@H]1c1c(O)cc(CCCCC)cc1O` [CBD, Cannabidiol, reference compound], the Emax at CB1 receptor is roughly 20%; at CB2 receptor [1] it was roughly 33%; on dopamine D2S receptor (CHO-K1, read-out: D2S agonist activity, % maximum response of dopamine) it was 10.7%; at 5HT-1A receptor it was roughly 20%. Besides, the “Concentration at which CB1 antagonist activity above the baseline appeared” value on CB1 receptor came out at 3 µM. For the same compound, the “Increase in the met-enkephalin internalization signal” value in test [2] is 18%. At CB2 receptor [3], the “Displacement of radiolabeled CP55940 at the CB2 binding site” value is given as “approximately 50%”. Further, the EC50 – broadly, the concentration needed to bring the measured effect to its halfway point – at 5HT-1A receptor is greater than 12 µM.
`C=C(C)[C@@H]1CCC(C)=C[C@H]1c1c(O)cc(CCCCCCC)cc1O` [CBDP, cannabidiphorol]: the Emax at CB1 receptor is roughly 20%; on CB2 receptor [1], roughly 23%; on 5HT-1A receptor, roughly 20%. In addition, the “Concentration at which CB1 antagonist activity above the baseline appeared” value at CB1 receptor amounted to 3 µM. The IC50 on CB1 receptor (read-out: CB1 antagonist IC50 (not reached within tested range)) and on CB2 receptor [1] (read-out: CB2 antagonist IC50 (not reached within tested concentrations)) was greater than 12 µM each time. For the same compound, the “D2S agonism (in words)” value at dopamine D2S receptor (within the tested concentration range (up to 12 µM)) was “did not show any sign of agonism”. Moreover, in test [2] (3 µM compound and 1 µM met-enkephalin), the “Met-enkephalin-induced mu-opioid internalization (in words)” value is on record as “significant increase”. Also, in test [2], the “Increase in the met-enkephalin internalization signal” value was 37%. Further, the “Displacement of radiolabeled CP55940 at the CB2 binding site” value on CB2 receptor [3] is on record as “approximately 50%”. In addition, at 5HT-1A receptor, the concentration for a half-maximal effect (EC50) was greater than 12 µM.
As for `CCCCCCCc1cc(O)c2c(c1)OC(C)(C)[C@@H]1CCC(C)=C[C@@H]21` [Δ9-THCP, tetrahydrocannabiphorol], the “In vivo effects in mice” value in the test on mice was “induce THC-like hypomotility, analgesia, and catalepsy”.

Source of the values: article PMC11277192 (International Journal of Molecular Sciences, 2024).
